Measured values reported in US20060046972A1, “Cytotoxic nucleoside analog compound 003 for treating cancer” (Parker Hughes Institute, priority 2004, published 2006).
Values joined by “and” are separate entries in the source; they are usually repeats but may differ in a detail not shown here. Equal entries are not always repeated.

System: CD-1 mice
Assay: Acute toxicity of intraperitoneal bolus doses in CD-1 mice
Type: in vivo
Settings: for tubular dilation: after the 30 day observation period
Description: 1.2.8 Animals Female CD-1 mice (Body weight: ˜25 g; Age: 7 week old) were purchased, from Charles River Laboratories (Willmington, Mass., USA). MMTV Neu-mice [FVB/N-TgN(MMTV neu)202MUL; Jackson Laboratory, Bar Harbor, Me.] were bred to produce multiple litters. All mice were housed in microisolator cages (Lab Products, Inc., Maywood, N.Y., USA) containing autoclaved bedding in a controlled specific pathogen-free (SPF) environment (12-h light/12-h dark photoperiod, 22±1° C., 60±10% relative humidity), which is fully accredited by the USDA (United States Department of Agriculture). Adult male Lewis rats (Body weight: ˜160 g) were obtained from the specific pathogen-free (SPF) breeding facilities of Harlan Sprague Dawley (Indianapolis, Id., USA) at 14 weeks of age. All husbandry and experimental contact made with the mice and rats maintained SPF conditions. The rats were kept in microisolater cages (Allentown Caging Equipment Co., Inc., Allentown, N.J., USA) containing autoclaved food, water, and bedding. Animal studies were approved by Parker Hughes Institute Animal Care and Use Committee and all animal care procedures 1.5 conformed to the Guide for the Care and Use of Laboratory Animals (National Research Council, National Academy Press, Washington D.C. 1996, USA).
The toxicity profile of Compound 003 in CD-1 mice and Lewis rats was examined, using standard procedures as previously reported for other experimental drugs (Uckun, et al., 2003, Arzneimittelforschun. 53:357; Uckun, et al., 2002, Clin Cancer Res. 8: 1224; Uckun, et al., 2002, Antimicrob Agents Chemother. 46:3428). In brief, mice and rats were treated with intraperitoneal injections of vehicle or Compound 003 at multiple dose levels. Compound 003 was administered as a 0.2 mL (for mice) or 0.5 mL (for rats) bolus injection containing 10% DMSO as a vehicle. Animals were allowed free access to autoclaved standard pellet food and tap water throughout the experiments and monitored daily for morbidity and mortality. Animals were electively sacrificed on day 7 or day 30 to determine the toxicity of Compound 003 by examining their blood chemistry profiles, blood counts, and evaluating multiple organs for the presence of toxic lesions. Blood was collected by intracardiac puncture following anesthesia with ketamine:xylazine and immediately heparinized. The blood chemistry profiles were examined using a Synchron CX5CE Chemical Analyzer (Beckman Instruments, Inc., Fullerton, Calif., USA). Blood counts (red blood cells [RBC], white blood cells [WBC] and platelets [Plt]) were determined using a HESKA Vet ABC-Diff Hematology Analyzer (HESKA Corporation, Fort Collins, Colo., USA). Absolute neutrophil counts (ANC) and absolute lymphocyte counts (ALC) were calculated from WBC values after determining the percentages of neutrophils and lymphocytes by a manual differential count. At the time of necropsy, […] from mice (bone, bone marrow, brain, cecum, heart, kidney, large intestine, liver, lung, lymph node, ovary, pancreas, skeletal muscle, skin, small intestine, spleen, stomach, thymus, thyroid gland, urinary bladder, and uterus, as available) and 21 different tissues from rats (bone, bone marrow, brain, coagulating gland, epididymis, heart, large intestine, small intestine, kidney, liver, lung, pancreas, peripheral nerve/spinal nerve, skeletal muscle, skin, spinal cord, spleen, stomach, testes, thymus, urinary bladder) were collected within 15 minutes after sacrifice, gross pathological findings were documented, organs were preserved in 10% neutral phosphate buffered formalin, and processed for histopathological examination. For histopathologic studies, formalin fixed tissues were dehydrated and embedded in paraffin by routine methods. Glass slides with affixed 4-5 micron tissue sections were prepared and stained with Hemotoxylin and Eosin (H&E). […]

[1] = 10 mg/kg single i.p. bolus, Day 7
[2] = 10 mg/kg single i.p. bolus, Day 30
[3] = 20 mg/kg single i.p. bolus, Day 7
[4] = 20 mg/kg single i.p. bolus, Day 30
[5] = 40 mg/kg single i.p. bolus, Day 7
[6] = 40 mg/kg single i.p. bolus, Day 30
[7] = 80 mg/kg single i.p. bolus, Day 7
[8] = 80 mg/kg single i.p. bolus, Day 30

COC(=O)C(C)NP(=O)(OCC1OC(n2cc(C)c(=O)[nH]c2=O)CC1N=[N+]=[N-])Oc1ccc(OC)cc1 (centres unmarked) [Compound 003, 3′-azidothymidine 5′-[p-methoxyphenylmethoxyalaninyl phosphate]]
ALC [1]: 5.5 ± 0.0 ×10^9/L | ANC [1]: 1.2 ± 0.0 ×10^9/L | AST [1]: 137.1 ± 23.1 IU/L | Albumin [1]: 1.5 ± 0.0 g/dL | Ammonia [1]: 174.8 ± 11.8 µmol/L | Amylase [1]: 1728.6 ± 248.5 U/L | BUN [1]: 24.1 ± 0.8 mg/dL | Calcium [1]: 8.9 ± 0.2 mg/dL | Creatinine [1]: 0.3 ± 0.0 mg/dL | Mean Weight Change (g ± SEM) [1]: 0.16 ± 0.15 g | Mean Weight Change [%] [1]: (0.6 ± 0.6%) | Morbidity [1]: 0/20 | Phosphate [1]: 6.2 ± 0.2 mg/dL | RBC [1]: 9.4 ± 0.2 ×10^12/L | Total Bilirubin [1]: 0.7 ± 0.1 mg/dL | Total Protein [1]: 4.1 ± 0.1 g/dL | Toxic Organ Lesions [1]: 0/20 | Triglycerides [1]: 158.3 ± 18.2 mg/dL | WBC [1]: 7.3 ± 0.6 ×10^9/L | Weight Gain [1]: 13/20 | Weight Loss [1]: 7/20 | ALC [2]: 7.5 ×10^9/L and 7.5 ± 0.0 ×10^9/L | ANC [2]: 2.1 ± 0.0 ×10^9/L | AST [2]: 114.0 ± 12.4 IU/L | Albumin [2]: 1.2 ± 0.0 g/dL | Ammonia [2]: 205.3 ± 15.6 µmol/L | Amylase [2]: 1993.5 ± 415.9 U/L | BUN [2]: 21.6 ± 0.7 mg/dL | Calcium [2]: 8.2 ± 0.2 mg/dL | Creatinine [2]: 0.3 ± 0.0 mg/dL | Mean Weight Change (g ± SEM) [2]: 2.61 ± 0.45 g | Mean Weight Change [%] [2]: (10.4 ± 1.8%) | Morbidity [2]: 0/20 | Phosphate [2]: 5.7 ± 0.2 mg/dL | RBC [2]: 9.1 ± 0.1 ×10^12/L | Total Bilirubin [2]: 0.4 ± 0.0 mg/dL | Total Protein [2]: 4.0 ± 0.1 g/dL | Toxic Organ Lesions [2]: 0/20 | Triglycerides [2]: 88.1 ± 10.3 mg/dL | WBC [2]: 9.9 ± 1.0 ×10^9/L | Weight Gain [2]: 18/20 | Weight Loss [2]: 2/20 | ALC [3]: 6.9 ± 0.0 ×10^9/L | ANC [3]: 1.6 ± 0.0 ×10^9/L | AST [3]: 100.0 ± 6.7 IU/L | Albumin [3]: 1.4 ± 0.0 g/dL | Ammonia [3]: 201.9 ± 15.0 µmol/L | Amylase [3]: 1810.3 ± 268.8 U/L | BUN [3]: 23.7 ± 0.7 mg/dL | Calcium [3]: 8.9 ± 0.1 mg/dL | Creatinine [3]: 0.4 ± 0.0 mg/dL | Mean Weight Change (g ± SEM) [3]: -0.04 ± 0.16 g | Mean Weight Change [%] [3]: (−0.1 ± 0.7%) | Morbidity [3]: 0/20 | Phosphate [3]: 6.6 ± 0.2 mg/dL | RBC [3]: 9.0 ± 0.3 ×10^12/L | Total Bilirubin [3]: 0.5 ± 0.1 mg/dL | Total Protein [3]: 4.2 ± 0.1 g/dL | Toxic Organ Lesions [3]: 0/20 | Triglycerides [3]: 144.3 ± 17.5 mg/dL | WBC [3]: 8.7 ± 0.8 ×10^9/L | Weight Gain [3]: 10/20 | Weight Loss [3]: 10/20 | ALC [4]: 6.8 ×10^9/L and 6.8 ± 0.0 ×10^9/L | ANC [4]: 2.0 ± 0.0 ×10^9/L | AST [4]: 107.8 ± 13.2 IU/L | Albumin [4]: 1.1 ± 0.0 g/dL | Ammonia [4]: 150.5 ± 10.3 µmol/L | Amylase [4]: 1587.6 ± 261.5 U/L | BUN [4]: 20.4 ± 0.6 mg/dL | Calcium [4]: 8.1 ± 0.1 mg/dL | Creatinine [4]: 0.3 ± 0.0 mg/dL | Mean Weight Change (g ± SEM) [4]: 3.01 ± 0.28 g | Mean Weight Change [%] [4]: (12.4 ± 1.1%) | Morbidity [4]: 0/20 | Phosphate [4]: 6.2 ± 0.1 mg/dL | RBC [4]: 9.1 ± 0.2 ×10^12/L | Total Bilirubin [4]: 0.5 ± 0.0 mg/dL | Total Protein [4]: 3.8 ± 0.1 g/dL | Toxic Organ Lesions [4]: 0/20 | Triglycerides [4]: 84.6 ± 7.2 mg/dL | WBC [4]: 9.3 ± 0.8 ×10^9/L | Weight Gain [4]: 20/20 | Weight Loss [4]: 0/20 | tubular dilation (20 mg/kg): 2/20 | ALC [5]: 5.5 ± 0.0 ×10^9/L | ANC [5]: 1.7 ± 0.0 ×10^9/L | AST [5]: 134.3 ± 23.2 IU/L | Albumin [5]: 1.5 ± 0.0 g/dL | Ammonia [5]: 366.8 ± 23.7 µmol/L | Amylase [5]: 1597.8 ± 100.0 U/L | BUN [5]: 27.6 ± 0.7 mg/dL | Calcium [5]: 8.8 ± 0.2 mg/dL | Creatinine [5]: 0.5 ± 0.1 mg/dL | Mean Weight Change (g ± SEM) [5]: -0.06 ± 0.21 g | Mean Weight Change [%] [5]: (−0.2 ± 0.9%) | Morbidity [5]: 0/20 | Phosphate [5]: 7.0 ± 0.2 mg/dL | RBC [5]: 9.8 ± 0.3 ×10^12/L | Total Bilirubin [5]: 0.7 ± 0.2 mg/dL | Total Protein [5]: 4.5 ± 0.1 g/dL | Toxic Organ Lesions [5]: 0/20 | Triglycerides [5]: 134.7 ± 21.6 mg/dL | WBC [5]: 7.4 ± 0.7 ×10^9/L | Weight Gain [5]: 9/20 | Weight Loss [5]: 11/20 | ALC [6]: 4.7 ×10^9/L and 4.7 ± 0.0 ×10^9/L | ANC [6]: 1.4 ± 0.0 ×10^9/L | AST [6]: 198.5 ± 51.8 IU/L | Albumin [6]: 1.2 ± 0.0 g/dL | Ammonia [6]: 139.2 ± 8.3 µmol/L | Amylase [6]: 2153.7 ± 411.4 U/L | BUN [6]: 20.5 ± 0.8 mg/dL | Calcium [6]: 7.2 ± 0.2 mg/dL | Creatinine [6]: 0.3 ± 0.0 mg/dL | Mean Weight Change (g ± SEM) [6]: 2.34 ± 0.35 g | Mean Weight Change [%] [6]: (9.6 ± 1.4%) | Morbidity [6]: 0/20 | Phosphate [6]: 5.9 ± 0.3 mg/dL | RBC [6]: 9.1 ± 0.1 ×10^12/L | Total Bilirubin [6]: 0.5 ± 0.1 mg/dL | Total Protein [6]: 3.9 ± 0.1 g/dL | Toxic Organ Lesions [6]: 0/20 | Triglycerides [6]: 74.9 ± 5.0 mg/dL | WBC [6]: 6.2 ± 0.7 ×10^9/L | Weight Gain [6]: 18/20 | Weight Loss [6]: 2/20 | tubular dilation (40 mg/kg): 1/20 | ALC [7]: 6.7 ± 0.0 ×10^9/L | ANC [7]: 2.4 ± 0.0 ×10^9/L | AST [7]: 111.4 ± 7.8 IU/L | Albumin [7]: 1.5 ± 0.1 g/dL | Ammonia [7]: 293.1 ± 23.4 µmol/L | Amylase [7]: 1424.6 ± 37.1 U/L | BUN [7]: 27.7 ± 0.9 mg/dL | Calcium [7]: 9.1 ± 0.2 mg/dL | Creatinine [7]: 0.3 ± 0.0 mg/dL | Mean Weight Change (g ± SEM) [7]: 0.09 ± 0.20 g | Mean Weight Change [%] [7]: (0.4 ± 0.8%) | Morbidity [7]: 0/20 | Phosphate [7]: 6.0 ± 0.2 mg/dL | RBC [7]: 9.3 ± 0.2 ×10^12/L | Total Bilirubin [7]: 0.8 ± 0.2 mg/dL | Total Protein [7]: 4.9 ± 0.2 g/dL | Toxic Organ Lesions [7]: 0/20 | Triglycerides [7]: 197.6 ± 34.7 mg/dL | WBC [7]: 9.5 ± 0.9 ×10^9/L | Weight Gain [7]: 11/20 | Weight Loss [7]: 9/20 | ALC [8]: 3.4 ×10^9/L and 3.4 ± 0.0 ×10^9/L | ANC [8]: 1.6 ± 0.0 ×10^9/L | AST [8]: 154.2 ± 33.8 IU/L | Albumin [8]: 1.2 ± 0.0 g/dL | Ammonia [8]: 178.4 ± 17.9 µmol/L | Amylase [8]: 1397.1 ± 339.3 U/L | BUN [8]: 26.1 ± 1.3 mg/dL | Calcium [8]: 7.7 ± 0.2 mg/dL | Creatinine [8]: 0.3 ± 0.0 mg/dL | Mean Weight Change (g ± SEM) [8]: 3.24 ± 0.29 g | Mean Weight Change [%] [8]: (13.4 ± 1.2%) | Morbidity [8]: 0/20 | Phosphate [8]: 5.8 ± 0.4 mg/dL | RBC [8]: 9.4 ± 0.2 ×10^12/L | Total Bilirubin [8]: 0.6 ± 0.0 mg/dL | Total Protein [8]: 4.1 ± 0.1 g/dL | Toxic Organ Lesions [8]: 0/20 | Triglycerides [8]: 85.6 ± 9.5 mg/dL | WBC [8]: 5.3 ± 0.5 ×10^9/L | Weight Gain [8]: 20/20 | Weight Loss [8]: 0/20 | tubular dilation (80 mg/kg): 1/20 | Kidney tubular degeneration, share of drug-treated mice (40 and 80 mg/kg, following the 7 day period): ~50% | leukopenia / lymphocyte depletion (day 30, 10-80 mg/kg): causes leukopenia in a dose-dependent fashion due to a selective depletion of lymphocytes | overall toxicity (histologic evaluation) (doses up to and including 80mg/kg): nontoxic | hematologic toxicity, renal toxicity, hepatotoxicity (highest dose level of 80 mg/kg/day): no evidence of hematologic toxicity renal toxicity, or hepatotoxicity | LD10 (single i.p. bolus, not reached at highest dose): > 80 mg/kg/day
